According to patent US12077501B2, “Compounds and compositions for intracellular delivery of agents” (ModernaTX, Inc., priority 2017, dated 2024):
Blank lines part the entries; values can stand above or below the compound they belong to.

What was measured:
[1] = system: luciferase expression; test: Expression of Luc in different organs (liver, lung, spleen, femur), bioluminescence; type: in vivo; conditions: mice, intravenous, 0.5 mpk, 6 hours
Protocol: The efficacy of the nanoparticle compositions presented in Tables 1, la, 17-1, 19-1, 20-1 and 21-1 was further evaluated by measuring the expression of modified luciferase in the liver, lung, spleen, and femur upon administration of a given composition. Formulations were administered intravenously to mice (n=3) at a dosage of 0.5 mpk and bioluminescence measured after 6 hours. The standard MC3 formulation and a PBS control were also tested.

[2] = Particle size and polydispersity index of nanoparticle compositions (Zetasizer Nano ZS); type: physicochemical; conditions: row marked #: Formulated with lipid:Chol:PEG 1 50:47.5:2.5
Protocol: A Zetasizer Nano ZS (Malvem Instruments Ltd, Malvem, Worcestershire, UK) can be used to determine the particle size, the polydispersity index (PDI) and the zeta potential of the nanoparticle compositions in 1×PBS in determining particle size and 15 mM PBS in determining zeta potential.

[3] = system: hEPO expression; test: Expression of hEPO in rats induced by nanoparticle compositions; type: in vivo, S.D. rats; conditions: rats, 3, 6 and 24 hours
Protocol: Formulations were administered intravenously, subcutaneously or intramuscularly to rats (n=3 or 6) at a dosage of 0.2 mg/kg or 0.5 mg/kg (mpk) and hEPO levels measured at 3, 6, and 24 hour time points. After the 48 hour time point, livers and spleens were harvested and frozen.
(§1) In contrast, hEPO expression in rats induced by administration of a nanoparticle composition including a compound according to one of formulae (I), (Ia1)-(Ia6), (Ib), (II), (IIa), (III), and (IIIa) was substantially […] than that measured for MC3. […] Tables 7c and 7d show additional protein expressions and clearance data from compositions with various compounds disclosed herein as compared to with MC3. Tables 7e, 7f and 7g show hEPO expression data in CD-1 mice at a dose of 0.5 mpk.

[4] = Lipid clearance: % dose remaining in liver of CD-1 mice; type: in vivo; conditions: intravenous, 0.5 mg/kg, CD-1 mouse, Table 8a
In short: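 Nanoparticle compositions of the disclosed lipids given intravenously and benchmarked against MC3. Protein expression reported as AUC (p/s*h) and clearance as % dose remaining in liver of CD-1 mice; hEPO expression in CD-1 mice measured at 0.5 mpk.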

[5] = system: hEPO expression; test: hEPO expression in CD-1 mice compared with MC3; type: in vivo
In short: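 Nanoparticle compositions containing the test compound were dosed to CD-1 mice at 0.5 mpk, and hEPO expression was measured. Clearance data were collected from the same compositions.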

[6] = system: hepatocytes and Kupffer cells; test: Mouse liver immunohistochemistry (IHC) with GFP mRNA (FIGS. 11A, 11B); type: in vivo; conditions: CD-1 mouse liver, 6h after intravenous administration, 0.5 mpk (FIG. 11A)
Description: FIGS. 11A and 11B are a pair of images comparing the results of a mouse liver immunohistochemistry (IHC) using mRNA expressing green fluorescent protein (GFP) after administration of nanoparticle compositions containing Compound 4 and MC3.

[7] = Encapsulation efficiency of RNA (QUANT-IT RIBOGREEN RNA assay); type: physicochemical; conditions: row marked #: Formulated with lipid:Chol:PEG 1 50:47.5:2.5
In short: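 Samples diluted to about 5 μg/mL RNA in TE buffer pH 7.5, treated with buffer or 2% Triton X-100 for 15 min at 37° C, then stained with RiboGreen (1:100). Fluorescence at about 480/520 nm, blank-subtracted; free RNA fraction is intact over Triton-disrupted signal.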

[8] = system: hEPO expression; test: hEPO (miR126 + miR142) mRNA expression, Tables 8b-8e; type: in vivo
[9] = Lipid clearance: % dose remaining, Tables 7c and 8b-8e (species not given); type: in vivo
Description: as §1

[10] = system: hEPO; test: hEPO expression in rats after i.v. administration of nanoparticle compositions (FIGS. 8A, 8B); type: in vivo, rat; conditions: rats (FIGS. 8A and 8B)
Description: PBS (phosphate buffered saline) is used as control. FIG. 8A compares the hEPO concentration after administration of nanoparticle compositions containing Compound 23, Compound 11, KL22, and MC3 at 2 mpk, i.v. administration. […] FIG. 8B illustrates the results of a dose response study using Compound 20, KL22, and MC3 at dose of 0.2, 0.5 and 1 mpk. […] In FIG. 8A, the numbers 1-5 refer to compositions containing the following: 1: Compound 23, 2: Compound 11, 3: KL22; 4: MC3; 5: PBS. In FIG. 8B, the numbers […] refer to compositions containing the following: 1: Compound 20, 0.2 mpk; 2: Compound 20, 0.5 mpk; 3: Compound 20, 1 mpk; 4: KL22, 0.2 mpk; 5: KL22, 0.5 mpk; 6: KL22, 1 mpk; 7: MC3, 0.2 mpk; 8: MC3, 0.5 mpk; 9: MC3, 1 mpk; 10: PBS.

[11] = system: LDL levels; test: LDL levels in LDLr-/- mice relative to untreated; type: in vivo; conditions: intravenous, Table 7b
[12] = system: rats; test: Tolerability / toxicity in rats (FIGS. 8A, 8B); type: in vivo; conditions: 2 mg/kg dose

SMILES: CCCCCCCCCCCCCCN(CCCCCCCCCCCCCC)CCN1CCN(CCN(CCCCCCCCC)CCN(CCCCCCCCC)CCCCCCCCC)CC1 [Compound 20, N^1-(2-(4-(2-(Ditetradecylamino)ethyl)piperazin-1-yl)ethyl)-N^1,N^2,N^2-trinonylethane-1,2-diamine]
total flux, rank among the compositions of Table 3 [1]: highest total flux

PDI ([2]; Table 1e): 0.22
Size (nm) ([2]; Table 1e): 109.0 nm
PDI ([2]; Table 1f): 0.26
Size (nm) ([2]; Table 1f): 129.7 nm
PDI ([2]; Table 1d): 0.20
Size (nm) ([2]; Table 1d): 105.0 nm
% Dose Remaining 24 hr [4]: 64.65%
EE (%) ([7]; Table 1e): 93.0%
EE (%) ([7]; Table 1f): 92.5%
EE (%) ([7]; Table 1d): 84.1%
% Dose Remaining (liver, 24 h) ([9]; Table 8c): 58.41%
% Dose Remaining (liver, 24 h) ([9]; Table 8d): 54.04%
SMILES: CCCCCC=CCC=CCCCCCCCCC(CCCCCCCCC=CCC=CCCCCC)OC(=O)CCCN(C)C (centres unmarked) [MC3, heptatriaconta-6,9,28,31-tetraen-19-yl 4-(dimethylamino)butanoate, reference compound]
hEPO expression at each time point, rank among compositions of Table 6 [3]: highest hEPO expression
AUC (p/s*h) CD-1 mice 0.5 mpk ([5]; intramuscular, title: 0.01 mg/kg, Table 7f): 27727 p/s*h
AUC (p/s*h) CD-1 mice 0.5 mpk ([5]; subcutaneous, 0.5 mg/kg, Table 7g): 375994 p/s*h
GFP protein expression in liver cell types (IHC) [6]: observed in both hepatocytes and Kupffer cells
AUC ([8]; Table 8c): 1.52e+07 pg·h/mL
AUC ([8]; Table 8d): 6.95e+08 pg·h/mL
AUC (mIU/mL*h) ([8]; lipid:Chol:PEG 1 50:47.5:2.5, Table 8e): 2.24E+07 mIU/mL*h

SMILES: CCCCCCCCCCCCN(CCCCCCCCCCCC)CCN(CCCCCCCCCCCC)CCN1CCN(CCN(CCCCCCCCCCCC)CCCCCCCCCCCC)CC1 [KL22, N1-[2-(didodecylamino)ethyl]-N1,N4,N4-tridodecyl-1,4-piperazinediethanamine, reference compound]
hEPO expression levels in rats [10]: do not express hEPO in rats
LDL levels lipid/untreated LDLr−/− mice 0.5 mpk, LDLr [11]: 0.51
toxicity [12]: toxic
